Assays:
[1] = Times to onset, minimal and maximal, observed in the indexed observations. [column 'DELAI' in source]; conditions: human
[2] = Comments (NB not yet translated). [column 'COMMENTAIRES' in source]; conditions: human
[3] = human, serum
[4] = human
[5] = human, serum, 4383 h
[6] = human; remark: listed apart in the source
[7] = human; remark: listed apart in the source
[8] = human; remark: listed apart in the source
[9] = human; remark: listed apart in the source
[10] = human, serum; remark: listed apart in the source
[11] = human; remark: listed apart in the source
[12] = human; remark: listed apart in the source
[13] = Highest frequency of acute liver toxicity observed during clinical trials, expressed as a percentage. [column '% AIGUE' in source]; conditions: human
[14] = human; remark: listed apart in the source
[15] = Presence of at least one case with successful reintroduction. [column 'REINT' in source]; conditions: human
[16] = Proposed mechanism(s) of liver damage. [column 'MEC' in source]; conditions: human
[17] = human; remark: listed apart in the source
[18] = Highest frequency of moderate liver toxicity observed during clinical trials, expressed as a percentage. [column '% BIOL' in source]; conditions: human
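Throughout, for Hepatotoxicity (association with vascular disease): count of indexed literature references reporting vascular liver injury in humans, e.g. peliosis hepatitis, hepatic veno-occlusive disease or Budd-Chiari syndrome.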
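Throughout, for Hepatotoxicity (benign tumour): value is a count of indexed literature references citing a benign tumour confirmed by histopathology.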
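Throughout, for Hepatotoxicity (choleostasis): human cholestatic liver injury, shown by histopathology or by peak ALT or AST elevation over alkaline phosphatase ratio below 2, value counts indexed literature reports.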
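Throughout, for Hepatotoxicity (chronic liver disease): chronic liver injury confirmed by histopathology or persistently raised serum aminotransferase activity beyond 6 months, value given as the count of indexed literature references.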
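Throughout, for Hepatotoxicity (cirrhosis): value is a count of indexed literature references reporting cirrhosis confirmed by histopathology.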
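Throughout, for Hepatotoxicity (cytolytic): human cytolytic liver injury, shown by histopathology or by a ratio above 5 of peak ALT or AST elevation to alkaline phosphatase elevation, value counts indexed references.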
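Throughout, for Hepatotoxicity (granulomatous hepatitis): value is a count of indexed literature references reporting granulomatous liver disease confirmed by histopathology.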
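Throughout, for Hepatotoxicity (malignant tumour): malignant tumour confirmed by histopathology, value gives the count of indexed literature references reporting it.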
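Throughout, for Hepatotoxicity (severe hepatitis): human clinical data: severe hepatitis, meaning potentially life-threatening liver failure or clinically observed cases, the value counts how many indexed literature references report it.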
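Throughout, for Hepatotoxicity (steatosis): steatosis confirmed by histopathology, value is the count of indexed references.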

Compound | Hepatotoxicity (time to onset) [1] | Hepatotoxicity (comment) [2] | Hepatotoxicity (moderate) [3] | Hepatotoxicity (cytolytic) [4] | Hepatotoxicity (chronic liver disease) [5] | Hepatotoxicity (association with vascular disease) [6] | Hepatotoxicity (steatosis) [7] | Hepatotoxicity (granulomatous hepatitis) [8] | Hepatotoxicity (choleostasis) [9] | Hepatotoxicity (acute) [10] | Hepatotoxicity (benign tumour) [11] | Hepatotoxicity (severe hepatitis) [12] | Hepatotoxicity (acute) [13] [%] | Hepatotoxicity (cirrhosis) [14] | Hepatotoxicity (successful reintroduction) [15] | Hepatotoxicity (mechanism) [16] | Hepatotoxicity (malignant tumour) [17] | Hepatotoxicity (moderate) [18] [%] | also measured
COc1ccc(Cc2nccc3cc(OC)c(OC)cc23)cc1OC [PAPAVERINE] | 1 day - 11 years | AC_ANTI-ADN/-N PERICHOLANGITE | 11 | 7 | 4 | 0 | 0 | 1 | 6 | 9 | 0 | 0 | 3.3 | 3 | yes | Allergic, Toxic Metabolite | 0 | 53 | –
NC1=NC(=O)C(c2ccccc2)O1 (stereo not drawn) [PEMOLINE] | 3 days - 3 years | AC_ANTI-MF/-N AGGRAVATION_HEPATITE_AUTOIMMUNE | 4 | 14 | 0 | 0 | 1 | 0 | 0 | 16 | 0 | 10 | 0.3 | 0 | yes | Allergic, Dose-dependant | 0 | 2 | –
CC(C)(S)[C@@H](N)C(=O)O [PENICILLAMINE] | 4 days - 2 years | CHOLESTASE_PROLONGEE CHOLANGITE | 12 | 5 | 1 | 0 | 5 | 2 | 28 | 31 | 0 | 0 | 0 | 0 | yes | Allergic | 0 | 6 | –
CCC1(c2ccccc2)C(=O)NC(=O)NC1=O [PHENOBARBITAL] | 6 days - 2 years | I/PARACETAMOL AC_ANTI-N/-MF CHOLANGITE | 8 | 23 | 1 | 0 | 1 | 1 | 4 | 30 | 0 | 10 | 0 | 0 | yes | Allergic | 0 | 0 | –
CCC(c1ccccc1)c1c(O)c2ccccc2oc1=O (stereo not drawn) [PHENPROCOUMON] | 6 days - 7 years | RC/ACENOCOUMAROL/WARFARINE CHOLANGITE AC_ANTI-ML/-N | 2 | 14 | 1 | 0 | 0 | 1 | 7 | 18 | 0 | 4 | 0 | 1 | yes | Allergic | 0 | 37 | –
O=C1NC(=O)C(c2ccccc2)(c2ccccc2)N1 [PHENYTOIN] | 1 day - 11 years | #MNI CHOLESTASE_PROLONGEE DUCTOPENIE #CBP | 29 | – | 6 | 0 | 4 | – | – | 84 | 0 | – | – | 0 | yes | – | 0 | – | Hepatotoxicity (cytolytic) ([4]; Liver): 53; Hepatotoxicity (granulomatous hepatitis) ([8]; Liver): 5; Hepatotoxicity (choleostasis) ([9]; Liver): 30; Hepatotoxicity (severe hepatitis) ([12]; Liver): 14; Hepatotoxicity (acute) ([13]; Liver): 2%; Hepatotoxicity (mechanism) ([16]; Liver): Allergic, Reactive metabolite; Hepatotoxicity (moderate) ([18]; Liver): 90%
CN1C(C(=O)Nc2ccccn2)=C(O)c2ccccc2S1(=O)=O [PIROXICAM] | 3 days - 1 year | AC_ANTI-N CHOLESTASE_PROLONGEE | 12 | 13 | 0 | 0 | 0 | 1 | 10 | 19 | 0 | 5 | 0.8 | 0 | yes | Allergic, Toxic | 0 | 73 | –
CCN(CC)CCNC(=O)c1ccc(N)cc1 [PROCAINAMIDE] | 3 hours - 3 months | AC_ANTI-M3 | 1 | 1 | 0 | 0 | 0 | 4 | 4 | 4 | 0 | – | – | 0 | yes | Allergic | 0 | – | Hepatotoxicity (severe hepatitis) ([12]; Liver): 0; Hepatotoxicity (acute) ([13]; Liver): 0%; Hepatotoxicity (moderate) ([18]; Liver): 0%
CCCNCC(O)COc1ccccc1C(=O)CCc1ccccc1 (stereo not drawn) [PROPAFENONE] | 6 days - 16 months | CHOLANGITE PRICHOLANGITE AC_ANTI-N | 7 | 1 | 0 | 0 | 0 | 0 | 6 | 9 | 0 | 0 | 7.7 | 0 | yes | Allergic | 0 | 10.6 | –
CO[C@H]1/C=C/O[C@@]2(C)Oc3c(C)c(O)c4c(O)c(cc(O)c4c3C2=O)NC(=O)/C(C)=C\C=C\[C@H](C)[C@H](O)[C@@H](C)[C@@H](O)[C@@H](C)[C@H](OC(C)=O)[C@@H]1C [RIFAMYCIN] | 6 hours - 13 days | CHOLANGITE I/ISONIAZIDE | 5 | 2 | 0 | 0 | 0 | 0 | 2 | 3 | 0 | 0 | 2.3 | 0 | yes | Allergic | 0 | 10 | –
CC(C)c1nc(CN(C)C(=O)N[C@H](C(=O)N[C@@H](Cc2ccccc2)C[C@H](O)[C@H](Cc2ccccc2)NC(=O)OCc2cncs2)C(C)C)cs1 [RITONAVIR] | < 1 day - 6 months | REACTIVATION_HVB/HVC | 10 | 11 | 0 | 0 | 1 | 0 | 2 | 14 | 0 | 1 | 32.1 | 0 | yes | Dose-dependant | 0 | 44 | –
